Laboratory results as given in patent US20240279249A1, “Compound, Coating Composition Comprising Same, Organic Light-Emitting Device Using Same, and Manufacturing Method Therefor” (LG Chem, Ltd., priority 2021, published 2024).
Like-named read-outs stand apart in the source and are kept apart here.

Columns and labels:
[1] = Film retention rate / solvent resistance: UV-vis absorption of heat-treated film after immersion in cyclohexanone; assay type: physicochemical; conditions: film from 4 wt % solution in cyclohexanone, 100 nm on quartz, heat-treated 190° C. to 200° C. in nitrogen 30 minutes, immersed in cyclohexanone 10 minutes; higher absorbance = more film retained
Experimental: Thereafter, after the substrate was heat-treated at a temperature of 190° C. to 200° C. in a nitrogen atmosphere for 30 minutes, the UV-vis absorption spectrum was measured. Subsequently, the same sample was immersed in cyclohexanone for 10 minutes and remove, the solvent was dried from the sample, and then the UV-vis absorption spectrum was also measured.
In the process of manufacturing the device, the film is retained while being cured during the heat treatment. The higher absorbance means that a relatively more residue remains on the film.

[2] = Solubility at 5 wt % relative to each solvent
From the text: In a solution process organic light emitting device, when an ink solvent is selected for the process, the ink solvent needs to dissolve both a host and a dopant.

[3] = 5 wt % relative to solvent, Acetone
[4] = 5 wt % relative to solvent, Dichloromethane
[5] = 5 wt % relative to solvent, Toluene

C=Cc1ccc([B-](c2c(F)c(F)c(C(F)(F)F)c(F)c2F)(c2c(F)c(F)c(C(F)(F)F)c(F)c2F)c2c(F)c(F)c(C(F)(F)F)c(F)c2F)cc1.Cc1ccc([I+]c2ccc(C(C)C)cc2)cc1 [Comparative Compound 1, (4-isopropylphenyl) (p-tolyl) iodonium tris(2,3,5,6-tetrafluoro-4-(trifluoromethyl)phenyl) (4-vinylphenyl)borate, reference compound]
Absorbance @ 350 nm [1]: 0.483

C=Cc1c(F)c(F)c([B-](c2c(F)c(F)c(C(F)(F)F)c(F)c2F)(c2c(F)c(F)c(C(F)(F)F)c(F)c2F)c2c(F)c(F)c(C(F)(F)F)c(F)c2F)c(F)c1F.Cc1ccc([I+]c2ccc(C(C)C)cc2)cc1 [Comparative Compound 2, (4-isopropylphenyl) (p-tolyl)iodonium tris(2,3,5,6-tetrafluoro-4-(trifluoromethyl)phenyl) (2,3,5,6-tetrafluoro-4-vinylphenyl) borate, reference compound]
Absorbance @ 350 nm [1]: 0.526

Cc1ccc([I+]c2ccc(C(C)C)cc2)cc1.Fc1c(F)c([B-](c2c(F)c(F)c(C(F)(F)F)c(F)c2F)(c2c(F)c(F)c(C(F)(F)F)c(F)c2F)c2c(F)c(F)c(C(F)(F)F)c(F)c2F)c(F)c(F)c1-c1ccc2c(c1)CC2 [Comparative Compound 3, (4-isopropylphenyl) (p-tolyl)iodonium(4-(bicyclo[4.2.0]octa-1,3,5-trien-3-yl)-2,3,5,6-tetrfluorophenyl)tris(2,3,5,6-tetrafluoro-4-(trifluoromethyl)phenyl)borate, reference compound]
Absorbance @ 350 nm [1]: 0.392

C=Cc1ccc(-c2c(F)c(F)c([B-](c3c(F)c(F)c(-c4ccc(C=C)cc4)c(F)c3F)(c3c(F)c(F)c(-c4ccc(C=C)cc4)c(F)c3F)c3c(F)c(F)c(-c4ccc(C=C)cc4)c(F)c3F)c(F)c2F)cc1.Cc1ccc([I+]c2ccc(C(C)C)cc2)cc1 [Comparative Compound 4, (4-isopropylphenyl) (p-tolyl)iodonium tetrakis(2,3,5,6-tetrafluoro-4′-vinyl-[1,1′-biphenyl]-4-yl) borate, reference compound]
Absorbance @ 350 nm [1]: 0.467
Solubility in Acetone [2, 3]: Dissolved
Solubility in Dichloromethane [2, 4]: Dissolved
Solubility in Toluene [2, 5]: Insoluble

C=Cc1ccc(-c2cc(-c3ccc(C=C)cc3)cc(-c3c(F)c(F)c(-c4c(F)c(F)c([B-](c5c(F)c(F)c(C(F)(F)F)c(F)c5F)(c5c(F)c(F)c(C(F)(F)F)c(F)c5F)c5c(F)c(F)c(C(F)(F)F)c(F)c5F)c(F)c4F)c(F)c3F)c2)cc1.Cc1ccc([I+]c2ccc(C(C)C)cc2)cc1 [Compound 3, (4-isopropylphenyl) (p-tolyl)iodonium (2″,2′″,3″,13′″,5″,5′″,6″,6′″-octafluoro-4-vinyl-5′-(4-vinylphenyl)-[1,1′:3′,1″:4″,1′″-quarterphenyl]-4′″-yl)tris(2,3,5,6-tetrafluoro-4-(trifluoromethyl)phenyl)borate]
Absorbance @ 350 nm [1]: 0.813
Solubility in Acetone [2]: Dissolved
Solubility in Dichloromethane [2]: Dissolved
Solubility in Toluene [2]: Dissolved

C=Cc1cc(C=C)cc(-c2c(F)c(F)c(-c3c(F)c(F)c([B-](c4c(F)c(F)c(C(F)(F)F)c(F)c4F)(c4c(F)c(F)c(C(F)(F)F)c(F)c4F)c4c(F)c(F)c(C(F)(F)F)c(F)c4F)c(F)c3F)c(F)c2F)c1 [Compound 5]
Absorbance @ 350 nm [1]: 0.801
Solubility in Acetone [2, 3]: Dissolved
Solubility in Dichloromethane [2, 4]: Dissolved
Solubility in Toluene [2, 5]: Dissolved

C=Cc1ccc(-c2c(F)c(F)c(-c3c(F)c(F)c([B-](c4c(F)c(F)c(C(F)(F)F)c(F)c4F)(c4c(F)c(F)c(C(F)(F)F)c(F)c4F)c4c(F)c(F)c(C(F)(F)F)c(F)c4F)c(F)c3F)c(F)c2F)c2ccccc12 [Compound 7]
Absorbance @ 350 nm [1]: 0.603

Fc1c(F)c(-c2c(F)c(F)c([B-](c3c(F)c(F)c(C(F)(F)F)c(F)c3F)(c3c(F)c(F)c(C(F)(F)F)c(F)c3F)c3c(F)c(F)c(C(F)(F)F)c(F)c3F)c(F)c2F)c(F)c(F)c1-c1ccc2c(c1)CC2 [Compound 8]
Absorbance @ 350 nm [1]: 0.546

(4-isopropylphenyl) (p-tolyl)iodonium (2,3,5,6-tetrafluoro-4′-vinyl-[1,1′-biphenyl]-4-yl)tris(2,3,5,6-tetrafluoro-4-(trifluoromethyl)phenyl)borate [Compound 1]
Absorbance @ 350 nm [1]: 0.802
